According to patent publication US9611295B2, “Treatment of IL-17 mediated disease by blocking SEFIR-SEFIR interactions” (THE CLEVELAND CLINIC FOUNDATION, priority 2011, dated 2017):

Columns and labels:
[1] = system: IL-17-mediated expression of Cxcl1; test: IL-17-mediated Cxcl1 mRNA expression in MEFs, real-time RT-PCR; assay type: cell-based, mouse; settings: peptides 200 μM for 24 hours, then IL-17 for 3 hours
Experimental: FIG. 4 provides data showing that a cell-permeable CC′ loop decoy peptide disrupts the interaction between Act1 and IL-17RA and inhibits IL-17R and IL-25R signaling. FIG. 4A provides sequences of Antennapedia homeodomain (Antp) (SEQ ID NO: 11)and decoy peptides (SEQ ID NOS 23-25 and 17, respectively, in order of appearance) with the Antp sequence underlined. FIG. 4B provides flow cytometry results based on experiments in which MEFs expressing IL-17RB were incubated for 2 or 24 hours with the indicated FITC-tagged peptides (200 μM) and were then analyzed by flow cytometry. […] The percentages of FITC-positive cells in the treated samples are shown. […] FIG. 4D provides Western blot results of experiments in which MEFs expressing IL-17RB were incubated with the indicated peptides (200 μM) for 24 hours after which they were treated with IL-17 or IL-25 and then analyzed by Western blotting with the indicated antibodies. […] The abundances of Cxcl1 and Il13 mRNAs were then measured by real-time RT-PCR. […]
Decoy peptides are based on surface-exposed regions of the primary sequence of a protein to mimic a putative interaction interface. […] These decoy peptides were also tagged at their C-termini with fluorescein isothiocyanate (FITC) to enable their cell-penetrating efficiency to be evaluated by flow cytometric sanalysis. […]

[2] = system: IL-17-induced pulmonary inflammation; test: IL-17-induced pulmonary inflammation in BALB/c mice; assay type: in vivo, mouse
Experimental: FIG. 5 provides bar graph and staining data showing that a cell-permeable CC′ loop decoy peptide inhibits IL-17- and IL-25-induced pulmonary inflammation. Wild-type (WT) female BALB/c mice (n=4 mice per group) were pretreated with DMSO, scrambled peptide, or the CC′ loop decoy peptide for 4 hours, after which they were administered saline, IL-17, or IL-25 intranasally. Mice were sacrificed and analyzed 16 hours after injection with IL-17 or 4 days after injection with IL-25. […] All experiments were performed three times. *P<0.05.
It has been shown that Act1 plays an essential role in IL-17- and IL-25-mediated pulmonary inflammation. Thus, the inventors examined whether the Act1 SEFIR domain CC′ loop decoy peptide ameliorated IL-17- and IL-25-induced airway inflammation in vivo. BALB/c mice were pretreated with scrambled peptide or with the Act1 SEFIR domain CC′ loop decoy peptide for 4 hours, after which we injected the mice intranasally with IL-17 or IL-25. […] Consistently, IL-17-induced lung and airway recruitment of granulocytes was reduced in mice pretreated with the CC′ loop decoy peptide compared to that in mice pretreated with the scrambled peptide (FIG. 5C). The lower grade of pulmonary inflammation in the mice treated with the CC′ loop decoy peptide correlated with the decreased IL-17-dependent expression of genes encoding MCP-1 and GM-CSF in the lung tissues (FIG. 5D). […] IL-25-induced lung and airway recruitment of granulocytes, predominantly eosinophils, as well as mucin production, as determined by Periodic acid-Schiff (PAS) staining, were reduced in mice pretreated with the CC′ loop decoy peptide compared to that in mice pretreated with the scrambled peptide (FIG. 5G). The decreased pulmonary inflammation in […] correlated with decreased expression of genes encoding the TH2-type cytokines IL-5 and IL-13 in the lungs (FIG. 5H).
Intranasal injection of mice with IL-17 and IL-25: Wild-type BALB/c female mice were pretreated with dimethyl sulfoxide (DMSO, the solvent for peptides), scrambled peptide, or the CC′ loop decoy peptide for 4 hours, after which they underwent intranasal administration of saline, IL-17 (4 μg/mouse), or IL-25 (4 μg/mouse). For IL-25-treated mice, decoy peptides were administrated daily through intranasal injection after pretreatment. Mice were anesthetized with isoflurane and sacrificed. BAL fluid was collected 16 hours after injection with IL-17 or 4 days after injection with IL-25. A total of 0.7 ml of HL-1 medium (BioWhittaker®) was used to obtain BAL fluid through trachea with a blunt needle and a 1-ml syringe. Cytospin slide preparations were obtained with a Shandon CytoSpin III Cytocentrifuge (Shandon/Thermo Scientific). Differential leukocyte counts were obtained on cytospin slide preparations after incubation with Diff Quik Giemsa stain. Cytokines in the BAL were analyzed by MultipleX plate (Invitrogen®). H&E and PAS staining were performed on lung tissues after fixation in 10% neutral-buffered formalin and paraffin embedding to detect pulmonary inflammation and for assessment of goblet cell metaplasia and mucin accumulation in airway epithelial cells.

[3] = 4 hours pretreatment, intranasal IL-17, 16 hours, vs scrambled peptide

“DRQIKIWFQNRRMKWKKLDEDEHGLHTKY [CC′ loop decoy peptide]” was tested, and the “inhibition of IL-17-mediated expression of Cxcl1” value [1] was ~50 % inhibition, the “GM-CSF in BAL fluid” value [2, 3] was “substantially reduced” and the “MCP-1 in BAL fluid” value [2, 3] was “substantially reduced”. The “neutrophil counts in BAL fluid” value [2, 3] was “substantially reduced”, the “neutrophil counts in BAL fluid” value ([2]; 4 hours pretreatment, intranasal IL-17, 16 hours, vs scrambled peptide, listed as CC′ peptide) was “reduced accumulation” and the “dose dependence of inhibition of IL-17-induced pulmonary inflammation” value ([2]; data not shown) was “dose-dependent manner”. The “IL-17-dependent expression of genes encoding MCP-1 and GM-CSF in lung tissues” value ([2]; real-time RT-PCR) was “decreased” and the “IL-17-induced lung and airway recruitment of granulocytes (H&E)” value ([2]; vs scrambled peptide) was “reduced”.
